Data from patent US7405309B2, “Pyranone derivatives useful for treating cancer” (Centre National de la Recherche Scientifique (CNRS), priority 2004, dated 2008).

What was measured:
[1] = system: K562 cells (myeloid leukemia); assay: Study of the cell cycle by flow cytometry, K562; type: cell-based; conditions: significant after 24 hours at 10^−7 M
Description: (§1) The biological activity of iodomethylene-dimethyl-dihydropyranone (I), as obtained according to Example 1, was studied in vitro on five different cell lines: • KB (epidermoid carcinoma of the nasopharynx) • HCT-116 (colorectal carcinoma) • K562 (myeloid leukemia) • K562-MDR1 (myeloid leukemia; resistance to doxorubicin) • MCF7-MDR1 (mammary adenocarcinoma; resistance to doxorubicin)
(§2) The cells selected for this study were incubated at 37° C. in the presence of iodomethylene-dimethyl-dihydropyranone (I) added to the culture medium at various concentrations. All the experiments carried out made it possible to determine the degree of toxicity of the test compound, its effect on the course of the cell cycle and its capacity to induce cell death by apoptosis.
(§3) This effect is significant after 24 hours of exposure of the cells to iodomethylene-dimethyl-dihydropyranone (I) used at the concentration 10^−7 M (cf. FIG. 4: effect of (I) on the cell cycle of the leukemia cells K562).

[2] = system: HCT116 cells (colorectal carcinoma); assay: Study of the cell cycle by flow cytometry, HCT116; type: cell-based, human; conditions: significant after 24 hours at 10^−7 M
Description: as §1, §2, §3

[3] = system: MCF7-MDR1 cells (mammary adenocarcinoma; resistance to doxorubicin); assay: Study of the cell cycle by flow cytometry, MCF7-MDR1; type: cell-based; conditions: significant after 24 hours at 10^−7 M
Description: as §1, §2, §3

[4] = in vivo; conditions: Nude, mouse, iv
Description: Having determined the maximum tolerated dose for a single injection, the Nude mice were treated by the intravenous (iv) route with iodomethylene-dimethyl-dihydropyranone (I) injected at three different doses: 50, 70 and 90 mg/kg/injection. Each dose was administered 4 times at 3 day intervals (D0, D3, D6 and D9). The survival of the animals, their weight and clinical signs noted up to day 21 made it possible to establish the value of the maximum tolerated dose for four injections which is at less than 90 mg/kg. The 40, 60 and 80 mg/kg doses were therefore chosen for the evaluation of antitumor activity.

[5] = system: KB cells (epidermoid carcinoma of the nasopharynx); assay: Study of cytotoxicity on KB cells; type: cell-based; conditions: Homo sapiens, 96 hours of incubation, 37° C., read-out: concentration which induces the death of 50% of the cells (IC50)
Description: as §1, §2
(§4) The cytotoxicity of iodomethylene-dimethyl-dihydropyranone (I) was evaluated on KB and HCT-116 cells.

[6] = system: HCT-116 cells (colorectal carcinoma); assay: Study of cytotoxicity on HCT-116 cells; type: cell-based; conditions: Homo sapiens, 96 hours of incubation, 37° C., read-out: concentration which induces the death of 50% of the cells (IC50)
Description: as §1, §2, §4

[7] = system: K562-MDR1 cells (chemoresistant); assay: Study of apoptosis, flow cytometry with annexin V / propidium iodide double labeling; type: cell-based; conditions: 24 hours, 10^−6 M and 10^−7 M
[8] = system: K562-MDR1 cells (myeloid leukemia; resistance to doxorubicin); assay: Study of the cell cycle by flow cytometry, K562-MDR1; type: cell-based; conditions: significant after 24 hours at 10^−7 M
Description: as §1, §2, §3

[9] = system: K562 cells (myeloid leukemia); assay: Morphology of treated K562 cells; type: cell-based; conditions: 10^−7 M, 24 hours
Description: as §1, §2
It should also be emphasized that from 24 hours onwards after the treatment with iodomethylene-dimethyl-dihydropyranone (I) at the dose of 10^−7 M, a change is observed in the morphology of the treated cells.

[10] = system: HCT 116 tumor transplanted under the skin; assay: Antitumor activity in Nude mice carrying a transplanted HCT 116 tumor; type: in vivo
Description: This antitumor activity of the compounds of the invention was studied on transplanted tumors (such as HCT-116) in Nude mice (nu/nu mice). Nude mice are immunodeficient mice having no thymus.
The xenotransplantation of human tumor cells in Nude mice is a model commonly used for the evaluation of the antitumor activity of various molecules.
The iodomethylene-dimethyl-dihydropyranone (I) was injected 4 times at 3 day intervals (D0, D3, D6 and D9). Two groups of control animals were formed. The first group received no injection (control), whereas the animals of the second group received injections of the solution which served to solubilize the iodomethylene-dimethyl-dihydropyranone (I) (vehicle).
The volume of the tumors (mm^3) was measured with a caliper twice per week.

[11] = Maximum tolerated dose for a single intravenous injection; conditions: Swiss Nu/nu (nude), mouse, in vivo, Nude mice, survival and weight monitored up to day 21
Description: The iodomethylene-dimethyl-dihydropyranone (I), as obtained according to Example 1, was injected by the intravenous route (iv) to 4-5 week old Nude mice (Swiss Nu/nu) at the following doses: 50 mg/kg, 66.6 mg/kg, 100 mg/kg, 150 mg/kg and 200 mg/kg.

SMILES: CC1(C)OC(=O)C=C/C1=C\I [E-5-iodomethylene-6,6-dimethyl-5,6-dihydropyran-2-one]
- effect on the cell cycle [1]: blocks cell division in all the lines at the G2/M phase
- effect on the cell cycle [2]: blocks cell division in all the lines at the G2/M phase
- effect on the cell cycle [3]: blocks cell division in all the lines at the G2/M phase
- MTD at 21 day [4]: < 90 mg/kg
- IC50 [5]: ~450 nM
- IC50 [6]: ~300 nM
- induction of apoptosis (positive annexin V/negative PI cells) [7]: high induction of apoptosis
- effect on the cell cycle [8]: blocks cell division in all the lines at the G2/M phase
- change in the morphology of the treated cells [9]: the cells lose their round forms and become fusiform
- tumor progression (tumor volume growth curves) ([10]; 80 mg/kg/injection iv, D0, D3, D6, D9, from the 2nd injection): significantly inhibits the tumor progression
- percentage T/C (median tumor volume treated/control ×100) ([10]; 21 days after the start of the treatments, iv, 4 injections, dose not stated): 53.5%
- MTD at 21 day [11]: 100 mg/kg
